Data published in ChEMBL document CHEMBL3044771, “Synthesis, characterization, and in vitro anti-Mycobacterium tuberculosis activity of terpene Schiff bases” (2013).
In brackets after ≈: the same amount, converted by molar mass.

Assays:
Assay type in all cases: functional
Mycobacteroides chelonae = assay: Antitubercular activity against Mycobacterium chelonae ATCC 35751 assessed as growth inhibition after 48 hr by NCCLS agar dilution method; conditions: ATCC 35751, 48 h
Mycobacterium xenopi = assay: Antitubercular activity against Mycobacterium xenopi ATCC 14470 assessed as growth inhibition after 48 hr by NCCLS agar dilution method; conditions: ATCC 14470, 48 h
[1] = test system: Mycolicibacterium smegmatis; assay: Antitubercular activity against Mycobacterium smegmatis ATCC 35797 assessed as growth inhibition after 48 hr by NCCLS agar dilution method; conditions: ATCC 35797, 48 h
[2] = test system: Mycobacterium intracellulare; assay: Antitubercular activity against Mycobacterium intracellulare ATCC 35743 assessed as growth inhibition after 48 hr by NCCLS agar dilution method; conditions: ATCC 35743, 48 h

| Compound | MIC (Mycobacteroides chelonae) [µg/mL] | MIC (Mycobacterium xenopi) [µg/mL] | MIC [1] [µg/mL] | MIC [2] [µg/mL] |
| --- | --- | --- | --- | --- |
| CC12CCC(C/C1=N/NC(=O)c1ccncc1)C2(C)C (stereo not drawn) | 50 (≈ 184 µM) | 50 (≈ 184 µM) | 50 (≈ 184 µM) | 50 (≈ 184 µM) |
| C=C(C)C1CC=C(C)/C(=N/NC(=O)c2ccncc2)C1 (stereo not drawn) | 12 (≈ 44.6 µM) | 12 (≈ 44.6 µM) | 12 (≈ 44.6 µM) | 12 (≈ 44.6 µM) |
| CCn1cc(C(=O)N/N=C\C=C(/C)CCC=C(C)C)c(=O)c2ccc(C)nc21 | > 100 | > 100 | > 100 | > 100 |
| CCn1cc(C(=O)N/N=C2\CC3CCC2(C)C3(C)C)c(=O)c2ccc(C)nc21 (stereo not drawn) | 50 (≈ 131 µM) | 50 (≈ 131 µM) | 50 (≈ 131 µM) | 50 (≈ 131 µM) |
| C=C(C)C1CC=C(C)/C(=N\NC(=O)c2cn(CC)c3nc(C)ccc3c2=O)C1 (stereo not drawn) | > 100 | > 100 | > 100 | > 100 |
| CC(C)=CCC/C(C)=C\C=N/NC(=O)c1ccccc1Nc1cccc(C)c1C | > 100 | > 100 | > 100 | > 100 |
| Cc1cccc(Nc2ccccc2C(=O)N/N=C2\CC3CCC2(C)C3(C)C)c1C (stereo not drawn) | > 100 | > 100 | > 100 | > 100 |
| C=C(C)C1CC=C(C)/C(=N/NC(=O)c2ccccc2Nc2cccc(C)c2C)C1 (stereo not drawn) | > 100 | > 100 | > 100 | > 100 |
| CC12CCC(C/C1=N\NC(=O)c1ccccc1Nc1cccc(C(F)(F)F)c1)C2(C)C (stereo not drawn) | > 100 | > 100 | > 100 | > 100 |
| C=C(C)C1CC=C(C)/C(=N/NC(=O)c2ccccc2Nc2cccc(C(F)(F)F)c2)C1 (stereo not drawn) | > 100 | > 100 | > 100 | > 100 |
| CC(C)=CCC/C(C)=C/C=N/NC(=O)c1ccncc1 | > 100 | > 100 | > 100 | > 100 |
| NNC(=O)c1ccncc1 [ISONIAZID] | 12.5 (≈ 91.1 µM) | 12.5 (≈ 91.1 µM) | 12.5 (≈ 91.1 µM) | 12.5 (≈ 91.1 µM) |
